Measurements published in ChEMBL document CHEMBL1154010, “Aziridine alkaloids as potential therapeutic agents” (Eur J Med Chem, 2009).
≈ marks a conversion by molar mass, not a printed value.

What was measured:
Mus musculus = assay: Toxicity in ip dosed ddY mouse bearing mouse S180 cells; format: organism-based, CCRF S-180; settings: in vivo
CCRF S-180 [1] = assay: Antitumor activity against mouse S180 cells implanted in ip dosed ddY mouse assessed as tumor volume after 7 days; format: functional
[2] = Antitumor activity against mouse mammary cancer cell implanted in C3H/An mouse assessed as inhibition of tumor growth at 0.5 mg/day for 14 days; format: functional, Cancer cell lines
Bacillus anthracis = assay: Antimicrobial activity against Bacillus anthracis; format: functional
Bacillus cereus = assay: Antimicrobial activity against Bacillus cereus ATCC 10702; format: functional
Bacillus subtilis [3] = assay: Antimicrobial activity against Bacillus subtilis NRRL B-558; format: functional
Bacillus subtilis [4] = assay: Antimicrobial activity against Bacillus subtilis PCI 219; format: functional
Corynebacterium bovis = assay: Antimicrobial activity against Corynebacterium bovis 1810; format: functional
Escherichia coli [5] = assay: Antimicrobial activity against Escherichia coli K-12; format: functional
Escherichia coli [6] = assay: Antimicrobial activity against Escherichia coli K-12 MLI629; format: functional
Escherichia coli [7] = assay: Antimicrobial activity against Escherichia coli BEM11; format: functional
Escherichia coli [8] = assay: Antimicrobial activity against Escherichia coli BE1126; format: functional
Escherichia coli [9] = assay: Antimicrobial activity against Escherichia coli BE1186; format: functional
Klebsiella pneumoniae = assay: Antimicrobial activity against Klebsiella pneumoniae PCI602; format: functional
Proteus vulgaris = assay: Antimicrobial activity against Proteus vulgaris OX19; format: functional
Proteus mirabilis = assay: Antimicrobial activity against Proteus mirabilis IFM OM-9; format: functional
Providencia rettgeri [10] = assay: Antimicrobial activity against Providencia rettgeri GN311; format: functional
Providencia rettgeri [11] = assay: Antimicrobial activity against Providencia rettgeri GN466; format: functional
Pseudomonas aeruginosa [12] = assay: Antimicrobial activity against Pseudomonas aeruginosa A3; format: functional
Pseudomonas aeruginosa [13] = assay: Antimicrobial activity against Pseudomonas aeruginosa GN315; format: functional
Staphylococcus aureus [14] = assay: Antimicrobial activity against Staphylococcus aureus FDA209P; format: functional
Staphylococcus aureus [15] = assay: Antimicrobial activity against Staphylococcus aureus Smith; format: functional
Staphylococcus aureus [16] = assay: Antimicrobial activity against methicillin-resistant Staphylococcus aureus isolate 5; format: functional
Staphylococcus aureus [17] = assay: Antimicrobial activity against methicillin-resistant Staphylococcus aureus isolate 17; format: functional
Micrococcus luteus [18] = assay: Antimicrobial activity against Micrococcus luteus IFO 3333; format: functional
Micrococcus luteus [19] = assay: Antimicrobial activity against Micrococcus luteus PCI 1001; format: functional
[20] = system: Salmonella enterica subsp. enterica; assay: Antimicrobial activity against Salmonella typhi T-63; format: functional, Salmonella enterica subsp. enterica serovar Typhi
[21] = system: Salmonella enterica subsp. enterica; assay: Antimicrobial activity against Salmonella enteritidis 1891; format: functional, Salmonella enterica subsp. enterica serovar Enteritidis
Shigella dysenteriae = assay: Antimicrobial activity against Shigella dysenteriae JS1 1910; format: functional
Shigella flexneri = assay: Antimicrobial activity against Shigella flexneri 4bJS11811; format: functional
[22] = system: Salmonella enterica subsp. enterica; assay: Antimicrobial activity against Salmonella typhi JS11746; format: functional, Salmonella enterica subsp. enterica serovar Typhi
Staphylococcus aureus [23] = assay: Antimicrobial activity against Staphylococcus aureus MS9610; format: functional
Micrococcus luteus [24] = assay: Antimicrobial activity against Micrococcus luteus FDA16; format: functional
Escherichia coli [25] = assay: Antimicrobial activity against Escherichia coli NIHJ; format: functional
[26] = system: Mycolicibacterium smegmatis; assay: Antimicrobial activity against Mycobacterium smegmatis ATCC 607; format: functional
Mycolicibacterium vaccae = assay: Antimicrobial activity against Mycobacterium vaccae ATCC 15483; format: functional
[27] = system: Mycolicibacterium smegmatis; assay: Antimicrobial activity against rifamycin-resistant Mycobacterium smegmatis ATCC 607; format: functional
CCRF S-180 [28] = assay: Antitumor activity against mouse S180 cells xenografted in rat; format: functional
HCT-116 = assay: Cytotoxicity against human HCT116 cells; format: functional, cell-based
L1210 = assay: Cytotoxicity against mouse L1210 cells; format: functional, cell-based
HL-60 = assay: Cytotoxicity against human HL60 cells; format: functional, cell-based
[29] = system: Mycolicibacterium smegmatis; assay: Antimicrobial activity against streptothricin-resistant Mycobacterium smegmatis ATCC 607; format: functional
[30] = system: Mycolicibacterium smegmatis; assay: Antimicrobial activity against streptomycin-resistant Mycobacterium smegmatis ATCC 607; format: functional
[31] = system: Mycolicibacterium smegmatis; assay: Antimicrobial activity against paromomycin-resistant Mycobacterium smegmatis ATCC 607; format: functional
[32] = system: Mycolicibacterium smegmatis; assay: Antimicrobial activity against capreomycin-resistant Mycobacterium smegmatis ATCC 607; format: functional
[33] = Antitumor activity against mouse EAC cells xenografted in rat; format: functional, Ehrlich

In the case of `COC1=C(C)C(=O)C2=C(C1=O)[C@@H](COC(N)=O)[C@@]1(OC)[C@H]3N[C@H]3CN21` [MITOMYCIN A], the LD50 (Mus musculus) is reported as 2.1 µg/mL and the ED50 (CCRF S-180 [1]) is reported as 1.1 µg/mL (≈ 3.15 µM).
For `COc1ccc2c(c1)CC[C@@H]1[C@@H]2CC[C@]2(C)C(=O)C(N3CC3)C[C@@H]12` (stereo partly drawn), the “inhibition (INH)” value [2] was 17%.
For `COc1c(O)cc2c(OC)c3c(c(O)c2c1O)C(=O)CC1CC(O)(C2CN2C)CC(=O)C31O` (stereo not drawn) [AZICEMICIN A], the MIC (Bacillus anthracis) was 100 µg/mL (≈ 218 µM), the MIC (Bacillus cereus) was > 100 µg/mL and the MIC (Bacillus subtilis [3]) was > 100 µg/mL. For the same compound, the MIC (Bacillus subtilis [4]) was > 100 µg/mL, the MIC (Corynebacterium bovis) was 25 µg/mL (≈ 54.4 µM) and the MIC (Escherichia coli [5]) was > 100 µg/mL. The MIC (Escherichia coli [6]) was > 100 µg/mL, the MIC (Escherichia coli [7]) was 100 µg/mL (≈ 218 µM) and the MIC (Escherichia coli [8]) was 100 µg/mL (≈ 218 µM). For the same compound, the MIC (Escherichia coli [9]) was 100 µg/mL (≈ 218 µM), the MIC (Klebsiella pneumoniae) was 100 µg/mL (≈ 218 µM) and the MIC (Proteus vulgaris) was > 100 µg/mL. For the same compound, the MIC (Proteus mirabilis) was > 100 µg/mL, the MIC (Providencia rettgeri [10]) was > 100 µg/mL and the MIC (Providencia rettgeri [11]) was > 100 µg/mL. For the same compound, the MIC (Pseudomonas aeruginosa [12]) was > 50 µg/mL, the MIC (Pseudomonas aeruginosa [13]) was > 100 µg/mL and the MIC (Staphylococcus aureus [14]) was > 100 µg/mL. For the same compound, the MIC (Staphylococcus aureus [15]) was > 100 µg/mL, the MIC (Staphylococcus aureus [16]) was > 100 µg/mL and the MIC (Staphylococcus aureus [17]) was > 100 µg/mL. The MIC (Micrococcus luteus [18]) was 12.5 µg/mL (≈ 27.2 µM), the MIC (Micrococcus luteus [19]) was 12.5 µg/mL (≈ 27.2 µM) and the MIC [20] was 100 µg/mL (≈ 218 µM). The MIC [21] was 100 µg/mL (≈ 218 µM), the MIC (Shigella dysenteriae) was 100 µg/mL (≈ 218 µM) and the MIC (Shigella flexneri) was 50 µg/mL (≈ 109 µM). The MIC [22] was 100 µg/mL (≈ 218 µM), the MIC (Staphylococcus aureus [23]) was > 100 µg/mL and the MIC (Micrococcus luteus [24]) was 50 µg/mL (≈ 109 µM). For the same compound, the MIC (Escherichia coli [25]) was 50 µg/mL (≈ 109 µM), the MIC [26] was 50 µg/mL (≈ 109 µM) and the MIC (Mycolicibacterium vaccae) was 50 µg/mL (≈ 109 µM). For the same compound, the MIC [27] was 50 µg/mL (≈ 109 µM).
With `CC1(C)CC(C(=O)ONP(=O)(N2CC2(C)C)N2CC2(C)C)CC(C)(C)N1O` (stereo not drawn) the Activity (CCRF S-180 [28]) was 93%.
Work on `COC(=O)[C@@H]1N=C1/C=C/CCCCCCCCC/C=C(/Cl)Br` yielded an IC50 (HCT-116) of 15200 nM.
For `CO[C@@]12[C@H](COC(N)=O)C3=C(C(=O)C(C)=C(N)C3=O)N1C[C@H]1[C@@H]2N1C` (stereo partly drawn) [PORFIROMYCIN], the LD50 (Mus musculus) was 57 µg/mL and the ED50 (CCRF S-180 [1]) was 22 µg/mL (≈ 63.2 µM).
`NCCCCNCCCN1CC1` showed an IC50 (L1210) of 150 nM and an IC50 (HL-60) of 110 nM.
`COc1c(O)cc2c(OC)c3c(c(O)c2c1O)C(=O)CC1CC(O)(C2CN2)CC(=O)C31O` (stereo not drawn) [AZICEMICIN B] gave an MIC [29] of 25 µg/mL (≈ 56.1 µM), an MIC [30] of 6.25 µg/mL (≈ 14 µM) and an MIC (Bacillus anthracis) of 100 µg/mL (≈ 225 µM). The MIC (Bacillus cereus) was 100 µg/mL (≈ 225 µM), the MIC (Bacillus subtilis [3]) was 100 µg/mL (≈ 225 µM) and the MIC (Bacillus subtilis [4]) was 100 µg/mL (≈ 225 µM). For the same compound, the MIC (Corynebacterium bovis) was 6.25 µg/mL (≈ 14 µM), the MIC (Escherichia coli [5]) was 100 µg/mL (≈ 225 µM) and the MIC (Escherichia coli [6]) was 100 µg/mL (≈ 225 µM). It also gave an MIC (Escherichia coli [7]) of 100 µg/mL (≈ 225 µM), an MIC (Escherichia coli [8]) of 100 µg/mL (≈ 225 µM) and an MIC (Escherichia coli [9]) of 100 µg/mL (≈ 225 µM). For the same compound, the MIC (Klebsiella pneumoniae) was 100 µg/mL (≈ 225 µM), the MIC (Proteus vulgaris) was 100 µg/mL (≈ 225 µM) and the MIC (Proteus mirabilis) was 100 µg/mL (≈ 225 µM). For the same compound, the MIC (Providencia rettgeri [10]) was 100 µg/mL (≈ 225 µM), the MIC (Providencia rettgeri [11]) was 100 µg/mL (≈ 225 µM) and the MIC (Pseudomonas aeruginosa [12]) was > 50 µg/mL. The MIC (Pseudomonas aeruginosa [13]) was 100 µg/mL (≈ 225 µM), the MIC (Staphylococcus aureus [14]) was 100 µg/mL (≈ 225 µM) and the MIC (Staphylococcus aureus [15]) was 100 µg/mL (≈ 225 µM). It also gave an MIC (Staphylococcus aureus [16]) of 100 µg/mL (≈ 225 µM), an MIC (Staphylococcus aureus [17]) of 100 µg/mL (≈ 225 µM) and an MIC (Micrococcus luteus [18]) of 1.56 µg/mL (≈ 3.5 µM). For the same compound, the MIC (Micrococcus luteus [19]) was 1.56 µg/mL (≈ 3.5 µM), the MIC [20] was 100 µg/mL (≈ 225 µM) and the MIC [21] was > 50 µg/mL. It also gave an MIC (Shigella dysenteriae) of 25 µg/mL (≈ 56.1 µM), an MIC (Shigella flexneri) of 100 µg/mL (≈ 225 µM) and an MIC [22] of 100 µg/mL (≈ 225 µM). It also gave an MIC (Staphylococcus aureus [23]) of 100 µg/mL (≈ 225 µM), an MIC (Micrococcus luteus [24]) of 6.25 µg/mL (≈ 14 µM) and an MIC (Escherichia coli [25]) of 25 µg/mL (≈ 56.1 µM). The MIC [26] was 12.5 µg/mL (≈ 28.1 µM), the MIC (Mycolicibacterium vaccae) was 6.25 µg/mL (≈ 14 µM) and the MIC [27] was 25 µg/mL (≈ 56.1 µM). For the same compound, the MIC [31] was 6.25 µg/mL (≈ 14 µM) and the MIC [32] was 12.5 µg/mL (≈ 28.1 µM).
`CC1(C)CC(CCC(=O)ONP(=O)(N2CC2(C)C)N2CC2(C)C)CC(C)(C)N1O` (stereo not drawn) showed an Activity (CCRF S-180 [28]) of 93% and an Activity [33] of 90%.
